In ChEMBL document CHEMBL1138690, “Carbonic anhydrase inhibitors. Inhibition of the newly isolated murine isozyme XIII with anions” (Bioorg Med Chem Lett, 2004):

What was measured:
Carbonic anhydrase 13 = Carbonic anhydrase 13 (Mus musculus, UniProt Q9D6N1)
Description: Inhibitory activity against mouse carbonic anhydrase XIII expressed in Escherichia coli TOP 10

Carbonic anhydrase V = Carbonic anhydrase V (Homo sapiens, UniProt Q9Y2D0+P35218)
Description: Inhibitory activity against human carbonic anhydrase V expressed in Escherichia coli

Carbonic anhydrase 1 = Carbonic anhydrase 1 (Homo sapiens, UniProt P00915)
Sequence of Carbonic anhydrase 1 (P00915 whole entry): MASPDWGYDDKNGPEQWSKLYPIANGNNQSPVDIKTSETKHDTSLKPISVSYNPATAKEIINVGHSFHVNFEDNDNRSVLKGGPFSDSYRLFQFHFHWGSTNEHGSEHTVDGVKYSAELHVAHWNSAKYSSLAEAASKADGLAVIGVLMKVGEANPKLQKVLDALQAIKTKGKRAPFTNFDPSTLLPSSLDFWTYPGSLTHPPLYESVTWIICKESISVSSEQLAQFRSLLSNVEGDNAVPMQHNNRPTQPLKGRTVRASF
Description: Inhibitory activity against human carbonic anhydrase I expressed in Escherichia coli

Sequence of Carbonic anhydrase 13 (Q9D6N1 whole entry): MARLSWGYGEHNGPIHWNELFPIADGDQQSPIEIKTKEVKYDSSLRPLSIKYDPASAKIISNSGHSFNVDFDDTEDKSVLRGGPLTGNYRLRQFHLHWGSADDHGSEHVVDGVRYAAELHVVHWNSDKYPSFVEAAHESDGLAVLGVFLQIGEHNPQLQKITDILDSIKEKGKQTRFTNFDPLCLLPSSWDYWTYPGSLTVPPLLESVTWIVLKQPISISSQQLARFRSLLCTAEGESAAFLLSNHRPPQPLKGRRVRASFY

Structure (SMILES) | Ki (Carbonic anhydrase 13) [mM] | Ki (Carbonic anhydrase V) [mM] | Ki (Carbonic anhydrase 1) [mM]
Br [BROMIDE] | 45 | – | –
N#CO [CYANATE] | 0.00025 | – | –
F [FLUORIDE ION] | 3 | – | –
Cl [HYDROCHLORIC ACID] | 138 | 156 | –
S [HYDROGEN SULFIDE] | 5.2 | 0.02 | –
I [IODIDE] | 5.4 | 25 | –
O=[N+]([O-])O [NITRIC ACID] | 36 | 16 | –
O=NO [NITROUS ACID] | 12.6 | – | –
OB(O)c1ccccc1 [PHENYLBORONIC ACID] | 2.85 | 4.51 | –
NS(=O)(=O)O [SULFAMATE] | 21.5 | 0.12 | –
NS(N)(=O)=O [SULFAMIDE] | 0.14 | – | –
O=S(=O)(O)O [SULFURIC ACID] | 267 | 680 | –
O=S(O)O [SULFUROUS ACID] | 75.5 | – | 18
N#CS [THIOCYANIC ACID] | 0.74 | – | –
